Measurements as given in patent US4551455A, “Method of treating high blood pressure using 6-[4-(1-imidazolyl)-phenyl]-5-methyl-3-oxo-tetrahydropyridazines” (A. Nattermann & Cie GmbH, priority 1982, dated 1985).
Where two headings read alike, the source gives them in different places.

Experiments:
thrombin formation = assay: reduction of thrombin formation in narcotized rats; format: in vivo, rat
Protocol: (§1) For investigation of the pharmacodynamic properties, the following methods (1) through (4) were employed.
(4) The reduction of thrombin formation in narcotized rats was evaluated. The test of the reduction of thrombin formation by the substances of the present invention 6-[4-(1-imidazolyl)phenyl]-5-methyl-3-oxo-2,3,4,5-tetrahydropyridazine (A) and 6-[4-(2-methyl-1-imidazolyl)-phenyl]-5-methyl-3-oxo-2,3,4,5-[…] (B) in parallel with the reference substance acetylsalicylic acid (D) was carried out by oral administration to narcotized rats.

[1] = test system: collagen-induced thrombocyte aggregation; assay: inhibition of collagen-induced thrombocyte aggregation in vitro (method of Born, modified); format: cell-based, human; conditions: read-out: IC50 (concentration that caused a 50% reduction of the aggregation)
Protocol: as §1
(3) The inhibition of collagen-induced thrombocyte aggregation in vitro was evaluated. The suppression of collagen-induced thrombocyte aggregation in vitro was carried out on thrombocyte-rich human plasma with the inventive substance 6-[4-(1-imidazolyl)-phenyl]-5-methyl-3-oxo-2,3,4,5-tetrahydropyridazine (A) in parallel with the reference substance acetylsalicyclic acid (D) according to the method of Born (Nature, 194, 927-929 (1962)) in modified form (simultaneous application). The concentration that caused a 50% reduction of the aggregation was defined as IC50 in Table 3 set forth below.

anaesthetized dogs = assay: blood pressure-lowering effect on anaesthetized dogs; format: in vivo, dog; conditions: for influence on blood pressure (in words): Table 2, anaesthetized dogs; for Pressure, Δ mmHg, diastolic / Pressure, Δ mmHg, systolic: anaesthetized dogs, 0.316 mg/kg intraduodenally, change in pressure
Protocol: as §1
(2) The blood pressure-lowering effect on anaesthetized dogs was evaluated. The influence on the systolic and diastolic blood preessure of the subject compounds 6-[4-(1-imidazolyl)phenyl]-5-methyl-3-oxo-2,3,4,5-tetrahydropyridazine (A) and 6-[4-(2-methyl-1-imidazolyl)-phenyl]-5-methyl-3-oxo-2,3,4,5-tetrahydropyridazine (B) were studied on the anaesthetized dogs by intraduodenal administration.

normotensive Wistar rats = assay: blood pressure-lowering effect on narcotized rats; format: in vivo, rat (male adult normotensive Wistar); conditions: for Average arterial pressure / Heart frequency: rats, 3.16 mg/kg orally, n = 5, narcotized 90 min after application; for Average arterial pressure: control 112.8 ± 4.8; for Heart frequency: control 307 ± 11
Protocol: as §1
(1) The blood pressure-lowering effect on narcotized rats was evaluated. For testing of the blood pressure-lowering effect, the invention substance 6-[4-(imidazolyl)phenyl]-5-methyl-3-oxo-2,3,4,5-tetrahydropyridazine (A) was administered in parallel with the reference substance 1-hydrazinophthalazine (hydralazine) (C) orally to groups of 5 male adult normotensive Wistar rats. Ninety minutes after application, the animal was narcotized with 75 mg/kg of intraperitoneal phenobarbital, and the trachea and the carotid artery were cannulated.

SMILES | Reduction in % (thrombin formation) (thrombin formation; 10 mg/kg orally) | IC50 ([1]; thrombocyte-rich human plasma, collagen-induced, simultaneous application) | influence on blood pressure (in words) (anaesthetized dogs) | Pressure, Δ mmHg, diastolic (anaesthetized dogs) | Pressure, Δ mmHg, systolic (anaesthetized dogs) | blood pressure-lowering effect on the rats (in words) (normotensive Wistar rats; Table 1, in comparison with hydralazine C) | Average arterial pressure (normotensive Wistar rats) | Heart frequency (normotensive Wistar rats) | Reduction in % (thrombin formation) (thrombin formation; 100 mg/kg orally) | IC50 ([1]; Homo sapiens)
CC1CC(=O)NN=C1c1ccc(-n2ccnc2)cc1 (stereo not shown) [Substance A, 6-[4-(1-imidazolyl)phenyl]-5-methyl-3-oxo-2,3,4,5-tetrahydropyridazine] | -52% | 2400 nM | strong influence on blood pressure | -51.42 mmHg | -51.77 mmHg | powerful blood pressure-lowering effect | 54.8 ± 8.9 mmHg | 415 ± 17 beats/min. | – | –
Cc1nccn1-c1ccc(C2=NNC(=O)CC2C)cc1 (stereo not shown) [Substance B, 6-[4-(2-methyl-1-imidazolyl)-phenyl]-5-methyl-3-oxo-2,3,4,5-tetrahydropyridazine] | -48% | – | strong influence on blood pressure | -43.80 mmHg | -48.18 mmHg | – | – | – | – | –
NNc1nncc2ccccc12 [Substance C, 1-hydrazinophthalazine, reference compound] | – | – | – | – | – | – | 82.0 ± 6 mmHg | 356 ± 8 beats/min. | – | –
CC(=O)Oc1ccccc1C(=O)O [Substance D, acetylsalicylic acid, reference compound] | – | – | – | – | – | – | – | – | -45% | > 300000 nM
